Reference: patent US10759781B2, “Substituted guanidine derivatives” (UBE INDUSTRIES, LTD., priority 2015, dated 2020)

Key:
[1] = test system: Human normal glomerular microvascular endothelial cells; type: cell-based; conditions: 2 days, 100 nM
Method: The Cytotoxicity Inhibition Test in Human Normal Glomerular Microvascular Endothelial Cells
(§1) Human normal glomerular microvascular endothelial cells were plated at 6000 cells/well in a collagen-coated 96-well culture plate. After one day of culture, the medium at each well was completely removed by aspiration and replaced with 50 μL of the compound solution diluted with the basal medium. The basal medium containing 0.1% DMSO was added to control wells. Following, the plate was incubated in CO2 incubator for 30 minutes. Fifty microliter of 2 mM methylamine diluted with the basal medium was added (final concentration 1 mM) to each negative control well (0% inhibition) as well as the compound-containing well, and 50 μL of the basal medium was added to each positive control well (100% inhibition). The plate was incubated in CO2 incubator for 2 days. Ten microliter of CCK-8 was added to each well and the mixtures were incubated in a plate incubator at 37° C. for approximately 2 hours after stirring with a plate shaker. The absorbance of the mixtures at 450 nm was measured with a multiplate reader. The cytotoxicity inhibition ratio of the compound was calculated from the following equation. Inhibition ratio={[Average absorbance of the compound-containing wells]−[Average absorbance of negative control wells]}/{[Average absorbance of positive control wells]−[Average absorbance of negative control wells]}×100

[2] = test system: Human normal hepatic sinusoid-like microvascular endothelial cells; type: cell-based; conditions: 2 days, 300 nM
Method: The Cytotoxicity Inhibition Test in Human Normal Hepatic Sinusoid-Like Microvascular Endothelial Cells
as §1, with “hepatic sinusoid-like” for “glomerular”

[3] = in vivo; set-up: species or system SD rats; conditions: SD, rat, po, 3 mg/kg
Method: Rat Pharmacokinetic (PK) Study (Concentration of Compound in Plasma after Oral Administration)
Seven to eight week old SD rats (weighing 180 to 250 g) were orally administered with a suspension of the compound in 0.5 W/V % methylcellulose 400 solution. Under anesthesia, the blood was collected from the jugular vein in EDTA tubes at 0.25, 0.5, 1, 2, 4, 6, 8 and 24 hours after the administration of the compound. The blood was centrifuged at 4° C. and 6000 g for 3 minutes to give plasma. Acetonitrile was added to the plasma, and the mixture was stirred with a shaker at 750 rpm for 3 minutes and was deproteinized by centrifugation at 3700 rpm for 2 minutes. Thus, the obtained sample was analyzed by LC/MS under the following conditions.
The concentration of the compound in the plasma at each blood sampling time was determined by an internal standard method, and AUC all (Area Under Curve) was calculated by a trapezoidal method.
The following LC and MS systems were used for measurement.
LC: CBM 30 series manufactured by Shimadzu Corporation
Column: Phenomenex Kinetex C18 (50×2.1 mm, 2.6 μm)
Column temperature: 40° C.
Mobile phase A: 0.1% aqueous formic acid solution, mobile phase B: 0.1% formic acid,
50% acetonitrile/methanol mixture
MS: 3200 manufactured by SCIEX

[4] = target: T1, Rat Plasma VAP-1 (Rattus norvegicus, UniProt O08590); test: (Ex vivo) rat plasma VAP-1 inhibition test after oral administration of the compound; type: in vivo; conditions: 3 hours after oral administration, SD male rats, read-out: inhibition ratio (plasma VAP-1, ex vivo)
T1 construct: from tissue; host or cells: plasma of SD male rats (7-12 weeks old) after oral dosing
T1 sequence (O08590 28-763 limits assumed): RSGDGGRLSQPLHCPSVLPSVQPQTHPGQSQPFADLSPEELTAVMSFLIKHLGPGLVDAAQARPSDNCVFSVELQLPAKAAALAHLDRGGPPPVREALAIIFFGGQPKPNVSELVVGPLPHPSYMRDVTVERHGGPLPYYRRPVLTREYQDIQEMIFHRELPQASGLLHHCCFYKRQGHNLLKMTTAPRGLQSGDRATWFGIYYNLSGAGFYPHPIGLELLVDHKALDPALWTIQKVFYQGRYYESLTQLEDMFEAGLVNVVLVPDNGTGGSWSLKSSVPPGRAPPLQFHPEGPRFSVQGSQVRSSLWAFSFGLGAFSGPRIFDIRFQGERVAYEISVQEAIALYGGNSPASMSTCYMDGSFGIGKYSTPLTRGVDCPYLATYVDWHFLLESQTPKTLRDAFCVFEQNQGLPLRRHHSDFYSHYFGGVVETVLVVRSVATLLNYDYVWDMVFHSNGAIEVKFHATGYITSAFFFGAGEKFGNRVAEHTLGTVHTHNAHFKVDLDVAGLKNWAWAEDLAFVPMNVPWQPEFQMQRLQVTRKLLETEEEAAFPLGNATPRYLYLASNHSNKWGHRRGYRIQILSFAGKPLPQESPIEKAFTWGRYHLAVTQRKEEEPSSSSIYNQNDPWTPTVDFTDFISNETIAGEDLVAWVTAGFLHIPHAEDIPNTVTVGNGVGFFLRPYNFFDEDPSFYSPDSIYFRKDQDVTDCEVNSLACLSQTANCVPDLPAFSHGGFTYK
Procedure, shortened: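 Male SD rats, 7–12 weeks, non-fasted, dosed orally at 0.3–10 mg/kg; jugular blood taken predose and 3, 8 and 24 h after dosing. Plasma incubated with 2.5 μM 14C-benzylamine for 3 h at 37 °C; extracted product counted by scintillation. Inhibition expressed relative to each animal's predose plasma activity.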

| Structure (SMILES) | AUC [3] [ng·h/mL] | inhibition in vivo at 0.3 mg/kg [4] [%] | cytotoxicity inhibition ratio [1] [%] | cytotoxicity inhibition ratio [2] [%] |
| --- | --- | --- | --- | --- |
| N=C(N)NC(=O)OCc1cccc(-c2cnc(N3CC(=NOCCC(O)CO)C3)c(F)c2)c1F (centres unmarked) [Example 95, 3-(6-{3-[(3,4-Dihydroxybutoxy)imino]azetidin-1-yl}-5-fluoropyridin-3-yl)-2-fluorobenzyl carbamimidoylcarbamate] | ≥ 1000 | ≥ 50 | ≥ 50 | ≥ 50 |
| CON=C1CN(c2ncc(-c3cccc(COC(=O)NC(=N)N)c3F)cc2F)C1 [Example 36, 2-fluoro-3-{5-fluoro-6-[3-(methoxyimino)azetidin-1-yl]pyridin-3-yl}benzyl carbamimidoylcarbamate] | ≥ 1000 | ≥ 50 | ≥ 50 | ≥ 50 |

Second part, led by results:

| AUC [3] [ng·h/mL] | inhibition in vivo at 0.3 mg/kg [4] [%] | Structure (SMILES) | cytotoxicity inhibition ratio [1] [%] | cytotoxicity inhibition ratio [2] [%] |
| --- | --- | --- | --- | --- |
| ≥ 1000 | ≥ 50 | N=C(N)NC(=O)OCc1cccc(-c2cnc(N3CC(=NOCC(CO)CO)C3)c(F)c2)c1F [Example 96, 2-Fluoro-3-{5-fluoro-6-[3-{[3-hydroxy-2-(hydroxymethyl)propoxy]imino}azetidin-1-yl]pyridin-3-yl}benzyl carbamimidoylcarbamate] | ≥ 50 | ≥ 50 |
| ≥ 1000 | ≥ 50 | [2H]C([2H])([2H])ON=C1CN(c2ncc(-c3cccc(COC(=O)NC(=N)N)c3F)cc2F)C1 [Example 37, 2-fluoro-3-(5-fluoro-6-{3-[(methoxy-d3)imino]azetidin-1-yl}pyridin-3-yl)benzyl carbamimidoylcarbamate] | ≥ 50 | ≥ 50 |
| ≥ 1000 | ≥ 50 | N=C(N)NC(=O)OCc1cccc(-c2cnc(N3CC(=NOCC(F)CO)C3)nc2)c1F (centres unmarked) [Example 102, 2-Fluoro-3-(2-{3-[(2-fluoro-3-hydroxypropoxy)imino]azetidin-1-yl}pyrimidin-5-yl)benzyl carbamimidoylcarbamate] | ≥ 50 | ≥ 50 |
